Values after ≈ are worked out from the molar mass of the structure shown.
What was measured:
[1] = tested on: Swiss albino mice; test: Intravenous toxicity study in mice (seven-day LD50); format: in vivo; details: lateral tail vein, 1 ml./min., concentration I W/V: Example 1 26.3, Example 2 11.25, Example 3 28.2, Example 5 28.0
Experimental: (§1) Intravenous, intracerebral and intracisternal acute toxicities of the compounds of Examples 1-5 were determined according to the following procedures.
Intravenous toxicity study in mice
Swiss albino mice with weights ranging from 18 to 25 grams were used for the performance of the test. Three to four groups of mice with sexes equally represented in each group received single measured doses (mg. of contrast media/kg of body weight) injected into a lateral tail vein at a rate of 1 ml./min.
Mortalities were recorded during the first four hours then daily for seven days. After seven days, surviving animals were sacrificed and necropsies performed.
Calculation of the seven-day LD50 value was carried out according to the method of Litchfield and Wilcoxon (J. Pharmacol. Exp. Ther. 96, 99-113, 1949)

[2] = tested on: Swiss albino mice; test: Intracerebral toxicity study in mice (48 hours LD50); format: in vivo; details: 0.05 ml. (0.1 ml. maximum), concentration I W/V: Example 1 26.3, Example 2 11.25, Example 3 28.2, Example 5 28.2
Experimental: as §1
Intracerebral toxicity study in mice
Swiss albino mice of either sex, weighing 18 to 23 grams were used for this test according to the method of Haley (Brit. J. Pharmcol. 12, 12-15 1957). At each dose level, the contrast medium was injected as follows. The mouse was grasped firmly by the loose skin behind the head. After the skin was pulled taut, a 3/8 inch 27 gauge needle attached to a 0.25 ml. syringe was inserted perpendicularly through the skull into the brain at a point 2 mm. from either side of the mid line on a line drawn through the anterior base on the ears. A dose of 0.05 ml. (0.1 ml. maximum) of various concentrations of the contrast medium was injected.
Mortalities were recorded during the first four hours, then daily for two days. Surviving animals were sacrificed 48 hours after injection and the LD50 value was calculated according to the method of Litchfield and Wilcoxon (J. Pharmacol. Exp. Ther. 96, 99-113, 1949).

[3] = tested on: Sprague Dawley rats; test: Intracisternal toxicity study in rats (LD50); format: in vivo; details: cisterna magna, single dose, seven days, concentration I W/V: Example 1 35.0, Example 2 11.25, Example 3 14.1, Example 5 35.0
Experimental: as §1
Intracisternal toxicity study in rats
The method of intracisternal administration of contrast media in rats was based on the procedure outlined by Melartin, et al. (Investigative Radiology, Jan. - Feb. 13, 12, 1970). Sprague Dawley rats were anesthetized with ether and positioned on a slanted stand. Following clipping of their hair on the nuchal and cervical area, a small midline incision was made in the skin in the occipital area to facilitate penetration of a 27 gauge needle into the cisterna magna. […] Single measured doses of the contrast medium were then injected.
Following injection, the animals were individually housed and observed for pharmacological and toxicological manifestations. Mortalities were recorded during the first four hours, then daily for seven days. Calculation of the LD50 value was carried out according to the method of Litchfield and Wilcoxon (J. Pharmacol. Exp. Ther. 96, 99-113, 1949)

[4] = Solubility in water
[5] = physchem; details: water

## CNC(=O)c1c(I)c(NC(C)=O)c(I)c(C(=O)NCC(=O)N[C@@H](CO)[C@@H](O)[C@H](O)[C@H](O)CO)c1I [Example 2, 2-Deoxy-2-(3-Acetamido-2,4,6-triiodo-5-N-methylcarbamyl-benzoylglycylamino)-D-glucitol]
[1]
  Intravenous LD50: > 7,500 mg. I/kg.
[2]
  Intracerebral LD50: > 543 mg. I/kg.
[3]
  Intracisternal LD50: < 200 mg. I/kg.
[4]; water
  solubility: ~50 mg/mL (≈ 59.9 mM)

## CC(=O)Nc1c(I)c(C(=O)NCC(=O)N(C)C[C@H](O)[C@@H](O)[C@H](O)[C@H](O)CO)c(I)c(N(C)C(C)=O)c1I [Example 5, N-(3-Acetamido-2,4,6-triiodo-5-N-methylacetamidobenzoylglycyl)-1-(methylamino)-1-deoxy-D-glucitol]
[1]
  Intravenous LD50: ~8,000 mg. I/kg.
[2]
  Intracerebral LD50: ~1100 mg. I/kg.
[3]
  Intracisternal LD50: 400 mg. I/kg.
[4]; water
  solubility: ~1000 mg/mL (≈ 1160 mM)

## CC(=O)Nc1c(I)c(C(=O)NCC(=O)N[C@@H](CO)[C@@H](O)[C@H](O)[C@H](O)CO)c(I)c(N(C)C(C)=O)c1I [Example 1, 2-(3-Acetamido-2,4,6-triiodo-5-N-methylacetamidobenzoylglycylamino)-2-deoxy-D-glucitol]
[1]
  Intravenous LD50: ~10,000 mg. I/kg.
[2]
  Intracerebral LD50: ~1550 mg. I/kg.
[3]
  Intracisternal LD50: ~525 mg. I/kg.
[4]
  solubility: 1000 mg/mL (≈ 1180 mM)
[4]; water
  solubility: ~1000 mg/mL (≈ 1180 mM)

## CC(=O)Nc1c(I)c(C(=O)NCC(=O)N(C)CC(O)CO)c(I)c(C(=O)NCC(=O)N(C)CC(O)CO)c1I (centres unmarked) [Example 3, (5-Acetamido-2,4,6-triiodoisophthaloyl)-N,N'-bis-2,3-dihydroxypropyl-N,N'-dimethyl-bis glycinamide]
[1]
  Intravenous LD50: > 15,000 mg. I/kg.
[2]
  Intracerebral LD50: ~1425 mg. I/kg.
[3]
  Intracisternal LD50: 100 mg. I/kg.
[5]
  solubility: ~1000 mg/mL (≈ 1120 mM)
